Assay results published in paper PMC8161735 (Toxicology, 2021).

Target: human ether-a-go-go-related gene (hERG) potassium channel (Homo sapiens, UniProt Q12809)
Experiment: whole-cell patch clamp, hERG tail current in hERG-HEK-293 cells
Type: cell-based

Sequence of human ether-a-go-go-related gene (hERG) potassium channel (Q12809 whole entry): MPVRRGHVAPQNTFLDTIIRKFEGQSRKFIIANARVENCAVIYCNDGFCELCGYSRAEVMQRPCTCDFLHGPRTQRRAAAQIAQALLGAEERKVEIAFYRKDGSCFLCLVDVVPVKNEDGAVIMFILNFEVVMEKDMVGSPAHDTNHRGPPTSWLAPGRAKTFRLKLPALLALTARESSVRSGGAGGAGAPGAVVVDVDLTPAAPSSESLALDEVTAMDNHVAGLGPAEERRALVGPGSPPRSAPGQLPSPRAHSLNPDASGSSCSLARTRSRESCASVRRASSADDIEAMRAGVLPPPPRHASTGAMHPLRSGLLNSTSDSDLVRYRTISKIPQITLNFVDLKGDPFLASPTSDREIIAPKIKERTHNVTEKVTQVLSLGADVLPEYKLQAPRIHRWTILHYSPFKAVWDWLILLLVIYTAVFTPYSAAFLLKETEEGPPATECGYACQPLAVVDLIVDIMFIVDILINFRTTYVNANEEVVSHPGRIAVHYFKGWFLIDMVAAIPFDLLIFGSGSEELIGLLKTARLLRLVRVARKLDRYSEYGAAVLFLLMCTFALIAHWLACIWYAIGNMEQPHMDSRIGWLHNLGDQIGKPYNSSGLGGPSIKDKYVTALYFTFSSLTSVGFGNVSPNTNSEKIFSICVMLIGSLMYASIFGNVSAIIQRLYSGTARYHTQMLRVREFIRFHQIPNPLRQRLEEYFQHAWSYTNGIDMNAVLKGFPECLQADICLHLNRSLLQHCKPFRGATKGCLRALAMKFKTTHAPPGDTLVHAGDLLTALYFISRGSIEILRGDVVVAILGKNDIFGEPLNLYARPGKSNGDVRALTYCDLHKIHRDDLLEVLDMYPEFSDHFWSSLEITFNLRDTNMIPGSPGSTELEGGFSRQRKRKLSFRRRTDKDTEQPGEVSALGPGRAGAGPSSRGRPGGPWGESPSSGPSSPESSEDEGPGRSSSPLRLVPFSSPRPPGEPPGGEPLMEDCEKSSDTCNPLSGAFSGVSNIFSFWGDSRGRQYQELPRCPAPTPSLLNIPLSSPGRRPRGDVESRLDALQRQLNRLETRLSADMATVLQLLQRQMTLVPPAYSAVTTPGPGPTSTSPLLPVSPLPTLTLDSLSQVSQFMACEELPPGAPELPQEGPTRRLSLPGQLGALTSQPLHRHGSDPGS

With CCN(CCO)CCCC(C)Nc1ccnc2cc(Cl)ccc12 (stereo not shown) [HCQ, Hydroxychloroquine] the IC50 was 8.6 µM.
